Test results as given in patent US20250339631A1, “CONTROLLED RELEASE OF […] A SOURCE MATERIAL STORED OVER TIME” (Syqe Medical Ltd., priority 2022, published 2025).

Experiments:
[1] = Long-term stability of ground cannabis packaged in Syqe cartridges at room temperature; format: physicochemical; conditions: 25° C.±2° C., RH 60%±5%, baseline to 24 months; one-way ANOVA
Method: (§1) In some embodiments, once cartridges are produced, they are stored, distributed and used at RT. In order to assess the shelf life of such cartridges, a long-term stability study was performed, during which cartridges were stored at 25° C.±2° C. (RH 60%±5%) in a calibrated and certified stability chamber (Memmert Constant climate chamber HPP260). 9, 6, 9, 8, 7, 4 and 4 separate growing batches were tested at baseline and after 3, 6, 9, 12, 18 and 24 months, respectively. At each time point samples of the ground inflorescence within the cartridges were analyzed for LOD and for the amount (mg) of each of the major phytocannabinoids (CBDA, CBD, CBGA, CBN, THCA and THC). Of the same batches, THC aerosolized by the Syqe inhaler was analyzed at baseline and at 6, 9, 18 and 24 months.
(§2) Analysis of cannabis inflorescences for the main phytocannabinoids (CBDA, CBD, CBGA, CBN, THCA and THC) was performed as follows: 100 mg of ground Cannabis inflorescences were weighed in duplicate from one container and extracted with 25 mL methanol then sonicated for 40 min and centrifuged at 3000 rpm for 5 min. All samples were filtered through a 0.22 μm PP filter vail prior to analysis. The dilution and quantitation were preformed corresponding to calibration curves. The main six phytocannabinoids were analyzed by ultra-high-performance liquid chromatography (UHPLC: […]) system with a refrigerated auto-sampler, thermostatic column oven and ultraviolet detector, Waters ACQUITY UPLC H-Class. Chromatographic separation was achieved using UPLC column Waters Acquity C18, 1.7 μm particles, 2.1×150 mm maintained at 30° C. The phytocannabinoids were separated using a gradient elution with mobile phases of 0.1% (v/v) formic acid in double-distilled water (phase A) and acetonitrile (phase B), respectively. A constant flow rate of 0.4 mL/min was employed throughout. The gradient profile varied from 70% to 100% B in 10.5 min, held for 0.5 min in these conditions and then returned to the initial conditions.
(§3) For THC and CBD, the concentrations of the acid and its neutral counterpart were summed and reported as the total content. For example, the concentration of total THC […] was calculated as: Total THC=THCA * 0.877+THC, with 0.877 being the molar ratio between the two compounds that corrects for a change in the mass of THCA as a result of the loss of CO2 (decarboxylation). This is shown in FIG. 7A: “U-HPLC analysis of the Bedrocan cultivar”.
(§4) R software (V.1.1.463) with tidyverse (17) package was used to analyze changes in outcome measures by one way ANOVA test, using Fisher's exact test analysis. All analyses were followed by a Tukey post-hoc test for multiple comparison. Data are presented as Mean±95% confidence interval (CI). Differences were considered significant at the p<0.05 level.

[2] = Stability of ground MC powder stored under refrigeration, pre-packaging; format: physicochemical; conditions: 5° C.±2° C., baseline to 3 months post grinding; one-way ANOVA
Method: In the described experiment, Bedrocan strain MC powder was stored at 5° C.±2° C. with up to 12% relative humidity (RH) in a polypropylene container, sealed in an aluminum foil pouch (Oliver-Tolas Healthcare Packaging B.V.; Venray, Netherlands). In order to assess its stability during the handling and hold time, samples were taken from three separate growing batches and assayed at baseline and at 1, 2 and 3 months post grinding. Each sample was assayed for loss on drying (LOD), and of the concentrations of the major phytocannabinoids (CBDA, CBD, CBGA, CBN, THCA and THC).
as §2, §3, §4

[3] = Stability of ground cannabis in Syqe cartridges stored at 30° C.; format: physicochemical; conditions: 30° C.±2° C., 65% RH, baseline to 6 months; one-way ANOVA
Method: Additionally, to assess the effects of a warmer temperature on MC, Syqe cartridges were stored post-production at an elevated temperature and humidity of 30° C.±2° C. (65% RH+5% RH). Three different growing batches were analyzed at baseline and at 1, 2, 4 and 6 months of storage.
as §2, §3, §4

[4] = Vaporization of THC and terpenes from ground cannabis heated to target temperatures; format: physicochemical; conditions: 135 mg ground cannabis; vaporized THC measured in the aerosol; targets 60-150° C.
Method: The vaporization plots in FIGS. 6A-B show results of an experiment performed by the inventors in which samples of 135 mg of ground cannabis were heated to several target temperatures, including 60° C., 70° C., 80° C., 90° C., 100° C., 110° C., 120° C., 130° C., 140° C. and 150° C. At each of the target temperatures, vaporized THC was measured in the aerosol. At each of the target temperatures, the residual mass of ground cannabis was analyzed using Gas Chromatography —Mass Spectrometry (GC/MS) to determine existence of terpenes, such as: Linalool, Isopulegol, Geraniol, Caryophyllene, 26.82 Humulene<alpha->and Nerolidol. The total terpenes residue (as remaining in the ground cannabis) is indicated by the dashed line in FIG. 6A. Based on the residual mass of terpenes, the released (vaporized) amount terpenes was calculated, by subtracting the measured residual mass from a respective reference mass.

[5] = after four years, room temperature (22 C), light or darkness (storage conditions A and B); cited from earlier work
[6] = THC dose aerosolized by the Syqe inhaler from stored cartridges; format: physicochemical; conditions: inhaler set to 500 μg THC, Mean±95% CI
Method: Methods: MC inflorescences were ground to a fine powder and the concentrations of the major phytocannabinoids therein were analyzed at different time points using ultra-high performance liquid chromatography (U-HPLC). Storage was done under different temperature and humidity conditions, before or after being packaged in Syqe cartridges. MC aerosolized by a the Syqe inhaler using Syqe cartridges stored for up to 2 years at 25° C. was analyzed for THC doses.
as §1
In some embodiments, the Syqe inhaler is preprogrammed with several distinct heating protocols. […]

| SMILES | change in phytocannabinoid amount [1] | change in phytocannabinoid concentration during the study period [2] | change in phytocannabinoid amount [3] | target temperature at which release started [4] | THC degraded [5] | aerosolized THC dose ([6]; 6 months at 25° C.) | aerosolized THC dose ([6]; BL) |
| --- | --- | --- | --- | --- | --- | --- | --- |
| CCCCCc1cc2c(c(O)c1C(=O)O)[C@@H]1C=C(C)CC[C@H]1C(C)(C)O2 (relative stereo) [THCA, (-)-Δ^9-trans-tetrahydrocannabinolic acid] | decreased significantly | no significant change | decreased significantly | – | – | – | – |
| C=C(C)[C@@H]1CCC(C)=C[C@H]1c1c(O)cc(CCCCC)c(C(=O)O)c1O [CBDA, cannabidiolic acid] | no significant change | no significant change | – | – | – | – | – |
| CCCCCc1cc(O)c(C/C=C(\C)CCC=C(C)C)c(O)c1C(=O)O [CBGA, cannabigerolic acid] | decreased significantly | no significant change | decreased significantly | – | – | – | – |
| CCCCCc1cc(O)c2c(c1)OC(C)(C)c1ccc(C)cc1-2 [CBN, Cannabinol] | increased significantly | no significant change | increased significantly | – | – | – | – |
| CCCCCc1cc(O)c2c(c1)OC(C)(C)[C@@H]1CCC(C)=C[C@@H]21 [THC, (-)-Δ^9-trans-tetrahydrocannabinol] | increased significantly | no significant change | increased significantly | 130 degrees C. | ~100% | 486.30 ± 50.56 µg | 484.76 ± 31.28 µg |
